According to patent US4405634A, “Imidazole derivatives for treating myocardial infarction” (Burroughs Wellcome Co., priority 1977, dated 1983):

Tests used:
[1] = test system: PGE, PGF and PGD (anti-aggregatory-prostaglandin generating enzymes); test: selectivity: amount of PGE, PGF and PGD produced by homogenised horse platelets; type: biochemical; parameters: key: O indicates no selectivity; + low selectivity; ++ medium selectivity; settings: the greater the selectivity, the more anti-aggregating prostaglandins are produced
Experimental: (§1) Horse platelets were prepared from whole horse blood by differential centrifugation. Approximately 10^6 platelets were homogenised in 1 ml 100 mM Tris buffer pH 7.4. Various concentrations of active compound were added and the reaction sets incubated for 5 minutes at ambient temperature. To each tube was added 20 nM of arachidonic acid containing 10^6 DPM of labelled arachidonic acid and the tubes incubated for 3 minutes at 37° C. in a shaking water bath. After incubation the radioactive products were extracted from the acidified aqueous phase with ethyl acetate and after concentration resolved by thin layer chromotography on silica gel with chloroform/methanol/acetic acid/water (90:8:1:0.8) as a developing solvent. The amount of thromboxane produced was measured by scraping the radioactive zone corresponding to thromboxane B2 and estimating the radioactivity in a liquid scintillation counter.
The selectivity of the active compounds was measured in a similar manner to that described above and the amount of PGE, PGF and PGD produced was determined. The greater the selectivity, the more of the anti-aggregating prostaglandins are produced.
The ED50 and Selectivity results are shown in Table A in which O indicates no selectivity; + low selectivity and ++ medium selectivity.

TXA2 synthetase = biological target: T1, TXA2 synthetase (Equus caballus, UniProt A0A9L0T8T9); test: thromboxane production from labelled arachidonic acid by homogenised horse platelets (concentration to reduce the enzyme activity by 50%); type: biochemical; settings: horse platelet homogenate, pH 7.4, 5 min preincubation, 3 min at 37° C. with arachidonic acid, read-out: ED50 (the source's name) (converted)
T1 construct: arachidonic acid substrate, thromboxane B2 measured by radio-TLC
T1 sequence (A0A9L0T8T9 2-534): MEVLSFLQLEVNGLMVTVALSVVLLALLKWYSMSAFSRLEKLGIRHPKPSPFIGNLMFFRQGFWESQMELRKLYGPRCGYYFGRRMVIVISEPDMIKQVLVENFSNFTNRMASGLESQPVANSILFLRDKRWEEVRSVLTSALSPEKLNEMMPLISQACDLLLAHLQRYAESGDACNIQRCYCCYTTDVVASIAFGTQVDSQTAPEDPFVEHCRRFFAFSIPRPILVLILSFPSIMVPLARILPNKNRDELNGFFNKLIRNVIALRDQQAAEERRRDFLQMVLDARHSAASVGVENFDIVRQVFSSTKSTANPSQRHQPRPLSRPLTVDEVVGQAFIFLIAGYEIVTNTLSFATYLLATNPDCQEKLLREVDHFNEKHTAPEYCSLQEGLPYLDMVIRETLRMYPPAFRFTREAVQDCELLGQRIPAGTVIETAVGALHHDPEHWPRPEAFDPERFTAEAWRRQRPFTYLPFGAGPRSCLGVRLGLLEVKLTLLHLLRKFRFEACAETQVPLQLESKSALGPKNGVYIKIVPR
T1 sequence (F7BQR7 24-599 partner): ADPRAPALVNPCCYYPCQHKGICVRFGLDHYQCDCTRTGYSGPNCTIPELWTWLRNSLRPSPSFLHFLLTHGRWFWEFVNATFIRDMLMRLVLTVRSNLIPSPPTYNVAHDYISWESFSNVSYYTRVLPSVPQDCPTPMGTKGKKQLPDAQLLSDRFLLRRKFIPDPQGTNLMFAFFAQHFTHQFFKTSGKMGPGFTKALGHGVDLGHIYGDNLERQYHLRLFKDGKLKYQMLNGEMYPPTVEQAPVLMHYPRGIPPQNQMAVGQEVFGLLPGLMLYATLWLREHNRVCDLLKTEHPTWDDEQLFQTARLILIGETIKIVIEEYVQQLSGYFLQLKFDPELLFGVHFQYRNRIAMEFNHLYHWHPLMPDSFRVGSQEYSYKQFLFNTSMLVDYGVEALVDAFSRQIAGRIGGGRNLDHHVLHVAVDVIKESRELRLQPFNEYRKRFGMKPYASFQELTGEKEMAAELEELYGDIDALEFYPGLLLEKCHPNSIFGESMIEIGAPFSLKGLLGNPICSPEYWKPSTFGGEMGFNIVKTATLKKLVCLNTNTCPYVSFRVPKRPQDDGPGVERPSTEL
Experimental: as §1
The concentration of active compound to reduce the enzyme activity by 50% (ED50) was established.

platelet aggregation = test: inhibition of platelet aggregation in vivo
platelet clumps = test: disaggregation of platelet clumps
[2] = test system: enzymic conversion of the endoperoxides (PGG2 and PGH2) to thromboxane A2; settings: platelet microsomes; Moncada et al., Prostaglandins, 13/4, 611-618, 1977; cited from earlier work
serum cholesterol = settings: U.K. Pat. No. 1 364 312; Biochem. Pharmacol. 24, 1902-1903, 1975; cited from earlier work

| Compound | Selectivity [1] | IC50 (TXA2 synthetase) [µM] | further results |
| --- | --- | --- | --- |
| Cc1cc(C)c(Cn2ccnc2)c(C)c1 [1-(2,4,6-Trimethylbenzyl)imidazole, 1-(2,4,6-trimethylbenzyl)imidazole] | ++ | 17 | – |
| Cc1ccc(Cn2ccnc2)cc1C [1-(3,4-Dimethylbenzyl)imidazole, 1-(3,4-dimethylbenzyl)imidazole] | ++ | 32.2 | inhibiting platelet aggregation in vivo (platelet aggregation): capable of inhibiting platelet aggregation in vivo; disaggregating platelet clumps (platelet clumps): capable of disaggregating platelet clumps |
| Clc1ccc(C=CCn2ccnc2)c(Cl)c1 [1-[3-(2,4-dichlorophenyl)prop-2-enyl]imidazole] | + | 16.2 | – |
| Clc1cccc(Cl)c1C=CCn1ccnc1 [1-[3-(2,6-dichlorophenyl)prop-2-enyl]imidazole] | + | 3.95 | – |
| Cn1ccnc1 [1-methylimidazole] | – | – | inhibition of the enzymic conversion of PGG2 and PGH2 to thromboxane A2 [2]: some degree of inhibition |
| CCCCCCCCCCCCn1ccnc1 [1-n-dodecylimidazole] | – | – | lowering serum cholesterol levels (serum cholesterol): capable of lowering serum cholesterol levels |
| c1c[nH]cn1 [Imidazole] | – | – | inhibition of the enzymic conversion of PGG2 and PGH2 to thromboxane A2 [2]: some degree of inhibition |
